{
  "source": "patent US20260102413A1",
  "about": "“TREATING PAIN ASSOCIATED WITH CENTRAL SENSITIZATION” (Medicon Pharmaceuticals, Inc., priority 2022, published 2026)",
  "key": {"[1]": {"experiment": "drug levels in proximal and distal half of the sciatic nerve after topical PS", "type": "in vivo, mouse", "conditions": "mouse, in vivo", "method": "In a separate experiment we studied 8 mice with paclitaxel-induced PN treated with PS 8% ointment 3×/d for 2 wks. Mice were euthanized as above 30 minutes after the last dose of PS. From these mice we harvested both sciatic nerves dividing each into proximal and distal halves, and combined the corresponding halves of every two animals for assay of drug levels."}, "[2]": {"tested_on": "BALB/c mice infected with HSV-1 KOS strain (PHN)", "type": "in vivo, mouse", "conditions": "mouse, in vivo", "method": "PHN was induced in mice by infecting them with the HSV-1 KOS strain virus and following established protocols (Ou et al, Front Immunol, 14, 1026269, 2023; Takasaki et al, Anesthesiology, 96 (5), 1168-74, 2002).\n; Reckitt Benckiser). Three days later, HSV-1 (10^6 PFUs in 20 μl PBS) was inoculated on the shin of the right hind paw (5×5 mm) after scarification with sandpaper. The virus was applied directly to the scarified area. The contralateral hind paw was without inoculation. Mock infection was performed using the same virus inactivated by heating at 60° C. for 1 h.\nIn a second experiment, the effect of the parent compound, sulindac, was tested in the same mouse model. Five days post-inoculation, sulindac (as a 5% gel), or vehicle control were administered topically onto both hind paws of mice three times a day for three days.\nPHN was induced in mice by infecting them with the HSV-1 KOS strain virus in line with the previous Examples.\nFive days post-inoculation, NO-sulindac (Formula XLIV) (as a 5% gel), or vehicle control were administered topically onto both hind paws of mice three times a day for three days."}, "[3]": {"tested_on": "mice", "conditions": "mouse, in vivo"}, "[4]": {"tested_on": "mice given paclitaxel (CIPN prevention)", "experiment": "von Frey PWT, prevention of paclitaxel-induced CIPN pain, topical PS", "conditions": "mouse, in vivo", "method": "In order to establish CIPN, paclitaxel is administered at 10 mg/kg intraperitoneally into C57/BL mice. […] This dosing regimen of paclitaxel produces pain associated with CIPN with time courses that are similar to those of pain after paclitaxel administration in cancer patients.\nThe first doses were administered 2 days prior to the first administration of paclitaxel."}, "[5]": {"tested_on": "mice with NTG-induced chronic migraine", "experiment": "von Frey PWT, NTG-induced chronic migraine model", "type": "in vivo, mouse", "conditions": "mouse, in vivo", "description": "The NTG-induced chronic migraine model was used as described previously."}, "[6]": {"tested_on": "mice with paclitaxel-induced central sensitization", "experiment": "cold allodynia (acetone test), paclitaxel-induced central sensitization", "conditions": "mouse, in vivo", "method": "To determine the outcome of treatment, assessment of mechanical allodynia was performed. […] Both methods of assessing allodynia are described in Toma W, et al. Neuropharmacology 2017; 117:305-15. Mechanical and cold allodynia are determined at least one day apart in the same animal.\nThe acetone test was used. Briefly, acetone was applied onto the plantar surface of each hind paw. The time each mouse spent licking, lifting, and/or shaking the hind paw recorded over 60 seconds was the score for cold allodynia."}, "[7]": {"tested_on": "mice with vincristine-induced neuropathic pain", "experiment": "von Frey mechanical allodynia, vincristine-induced pain, topical PS", "conditions": "mouse, in vivo", "description": "(§1) Paw withdrawn, licking or shaking were considered positive responses."}, "[8]": {"experiment": "in vivo", "conditions": "rat", "method": "Approximately 800 μL of blood were collected through cardiac puncture and immediately centrifuged.\nTissue samples were harvested using separate dissection instruments for each tissue sample to avoid cross contamination, and snap frozen. The levels of the test drug were determined by HPLC.\nAs previously described (Wen et al, 2019), each plasma sample was mixed with double volume of acetonitrile and centrifuged at 13,200 rpm for 15 min. Tissue samples were weighed, ddH2O (100-300 μL, depending on tissue weight) was added, and they were homogenized. Following addition of acetonitrile (twice the volume of the homogenate), the mixture was sonicated for 10 min, centrifuged at 13,200 rpm for 15 min, and analyzed by HPLC, as reported (Wen et al, 2019).\nIt was performed following a previously reported method (Xie et al, 2012). Briefly, the HPLC system consisted of a Waters Alliance 2695 Separations Module (Milford, MA, USA) equipped with a Waters 2998 photodiode array detector (328 nm) and a Thermo Hypersil BDS C18 column (150×4.6 mm, particle size 3 μm). The mobile phase consisted of a gradient between solvent A (formic acid, CH3CN, H2O (0.1:4.9:95 v/v/v)) and solvent B (CH3CN) at a flow rate of 1 mL·min−1 at 30° C. We applied gradient elution from 30 to 100% solvent B from 0-6 min, and it was maintained at 100% solvent B until 8 min.\nThe methods are identical to those used in Example 27.\nA single dose of PN or PSA was given by oral gavage to groups of three Sprague-Dawley rats, which were euthanized and dissected according to the early example. The oral gavage solution of phosphonaproxen was prepared by dissolving in 10% DMSO and then suspending it in corn oil."}, "[9]": {"target": "COX-1 (Homo sapiens, UniProt P23219)", "sequence (P23219 24-599)": "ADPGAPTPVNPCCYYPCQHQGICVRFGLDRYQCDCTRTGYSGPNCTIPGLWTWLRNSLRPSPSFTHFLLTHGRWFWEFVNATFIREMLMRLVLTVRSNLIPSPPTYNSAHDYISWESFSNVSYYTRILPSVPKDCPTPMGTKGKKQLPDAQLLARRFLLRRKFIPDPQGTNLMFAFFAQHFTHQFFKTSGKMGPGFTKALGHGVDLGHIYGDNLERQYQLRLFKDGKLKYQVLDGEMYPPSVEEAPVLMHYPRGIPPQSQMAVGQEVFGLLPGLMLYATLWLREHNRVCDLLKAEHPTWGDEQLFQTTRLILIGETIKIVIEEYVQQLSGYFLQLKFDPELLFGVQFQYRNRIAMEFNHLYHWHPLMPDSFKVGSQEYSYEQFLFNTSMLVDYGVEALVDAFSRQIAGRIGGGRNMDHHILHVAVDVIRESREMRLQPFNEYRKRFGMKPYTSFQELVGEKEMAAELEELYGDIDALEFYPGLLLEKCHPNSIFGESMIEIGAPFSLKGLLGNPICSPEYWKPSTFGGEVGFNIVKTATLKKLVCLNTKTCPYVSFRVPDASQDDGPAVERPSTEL", "conditions": "cited from earlier work"}, "[10]": {"tested_on": "chronic pain after LASIK", "experiment": "PS to outer surface of eyelid in a subject after kerato-refractive surgery (LASIK)", "conditions": "in vivo"}, "[11]": {"tested_on": "STZ-diabetic rats", "type": "in vivo, rat", "conditions": "rat, in vivo", "description": "The animal model corresponds to that used for Example 4, but using a prevention protocol. As in Example 4, the outcome measure, determining the effect of the treatment on the prevention of mechanical allodynia, was the PWT test, using von Frey filaments. The measurements were taken at day −3, before treatment or induction of neuropathic pain associated with DPN, and again at the end of the study period (day 28).\nThe rats were randomised into treatment groups as follows, all having an average body weight of about 225 g. • 1. Group 1: naïve rats (n=6) • 2. Group 2: STZ only (n=8) • 3. Group 3: STZ plus vehicle (n=8) • 4. […] Group 5: STZ plus sulindac 0.7% (n=8) • 6. Group 6: STZ plus lidocaine cream 5% (n=8)\nEach treatment group was subjected to a PWT assessment at day −3 in order to determine the baseline of mechanical allodynia.\nFor those rats in the lidocaine treatment group, lidocaine cream was applied only once to both hind paws of the rats 30 min before the final PWT measurement on day 28. On day 0, neuropathic pain associated with DPN was induced with the administration of STZ, and the blood glucose was checked on day 3."}, "[12]": {"target": "COX-2 (Homo sapiens, UniProt P35354)", "sequence (P35354 18-604)": "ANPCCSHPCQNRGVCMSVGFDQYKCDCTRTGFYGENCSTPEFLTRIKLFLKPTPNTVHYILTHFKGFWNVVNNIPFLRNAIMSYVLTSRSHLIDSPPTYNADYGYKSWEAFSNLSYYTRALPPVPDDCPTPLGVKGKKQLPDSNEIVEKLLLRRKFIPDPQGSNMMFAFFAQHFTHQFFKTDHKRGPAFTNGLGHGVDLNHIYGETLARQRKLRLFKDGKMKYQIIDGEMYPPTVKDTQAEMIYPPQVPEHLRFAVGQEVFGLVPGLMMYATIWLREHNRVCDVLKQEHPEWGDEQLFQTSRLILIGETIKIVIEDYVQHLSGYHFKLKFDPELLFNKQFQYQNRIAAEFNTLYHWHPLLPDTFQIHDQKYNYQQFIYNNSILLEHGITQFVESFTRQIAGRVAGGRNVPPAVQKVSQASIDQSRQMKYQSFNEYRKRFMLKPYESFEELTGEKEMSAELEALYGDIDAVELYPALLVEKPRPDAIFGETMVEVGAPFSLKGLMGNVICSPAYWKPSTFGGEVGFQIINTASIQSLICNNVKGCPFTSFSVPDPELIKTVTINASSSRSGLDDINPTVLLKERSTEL", "conditions": "cited from earlier work"}, "[13]": {"tested_on": "corneal neuropathic pain", "experiment": "preliminary in vivo evidence, PS to the ocular surface, corneal neuropathic pain"}, "[14]": {"type": "in vivo, mouse", "conditions": "mouse, in vivo", "method": "At 0.5, 1, 3, 5, 12, 18, and 24 h, mice (n=4-5 mice/time point) were euthanized with CO2 inhalation. Blood was drawn immediately after death. Tissues, including paw skin, paw muscle, leg muscle, the sciatic nerve and lumbar DRG bilaterally were dissected quickly, immediately frozen in liquid nitrogen and stored at −80° C. until analyzed."}, "[15]": {"tested_on": "mice with oxaliplatin-induced neuropathic pain", "experiment": "von Frey mechanical allodynia, oxaliplatin-induced pain, topical PS", "conditions": "mouse, in vivo", "description": "as §1"}, "[16]": {"tested_on": "mice with chronic constriction injury of the left sciatic nerve (PTPN)", "experiment": "von Frey PWT, chronic constriction injury (CCI) model of PTPN, topical compounds", "type": "in vivo, mouse", "conditions": "Q922, PSA 5% on left hind paw 3x/day 6 days"}},
  "note": "Like-named read-outs stand apart in the source and are kept apart here.",
  "data": [
    {"smiles": "CCOP(=O)(OCC)OCCCCOC(=O)CC1=C(C)/C(=C/c2ccc([S+](C)[O-])cc2)c2ccc(F)cc21", "note": "(stereo not shown) [PS, phosphosulindac]", "values": [
      {"measurement": "concentration in distal half of the sciatic nerve, mean ± SEM", "setting": "[1]", "value": "17.0 ± 5.1", "unit": "µM"},
      {"measurement": "concentration in proximal half of the sciatic nerve, mean ± SEM", "setting": "[1]", "value": "0.9 ± 0.3", "unit": "µM"},
      {"measurement": "PWT, g Mean ± SEM, Post-inoculation, day 5", "setting": "[2]", "value": "0.53 ± 0.06", "unit": "g"},
      {"measurement": "PWT, g Mean ± SEM, Post-treatment", "setting": "[2]", "value": "0.93 ± 0.06", "unit": "g"},
      {"measurement": "PWT, g Mean ± SEM, Pre-inoculation", "setting": "[2]", "value": "1.27 ± 0.19", "unit": "g"},
      {"measurement": "topical or systemic side effects", "setting": "[3]", "value": "no topical or systemic side effects"},
      {"measurement": "PWT, gm Mean ± SEM", "setting": "[4]", "value": "0.4 ± 0.01", "unit": "gm"},
      {"measurement": "mechanical allodynia score (von Frey)", "setting": "[4]", "value": "1.2 ± 0.15", "unit": "g"},
      {"measurement": "PWT, g Mean ± SEM, Baseline", "setting": "[5]", "value": "2.28 ± 0.34", "unit": "g"},
      {"measurement": "PWT, g Mean ± SEM, Day 11", "setting": "[5]", "value": "1.18 ± 0.10", "unit": "g"},
      {"measurement": "cold allodynia score (acetone test, time licking/lifting/shaking over 60 s)", "setting": "[6]", "value": "3.1±0.4"},
      {"measurement": "mechanical allodynia score (von Frey)", "setting": "[7]", "value": "1.5 ± 0.09", "unit": "g"},
      {"measurement": "detection in the systemic circulation", "setting": "[8]", "value": "No PS was detected"},
      {"measurement": "T1/2", "setting": "[8]; po, 250 mg/kg", "value": 3.3, "unit": "h"},
      {"measurement": "inhibition of COX-1", "setting": "[9]", "value": "does not inhibit"},
      {"measurement": "effect on chronic pain after LASIK", "setting": "[10]", "value": "dramatically reduced chronic pain"},
      {"measurement": "von Frey, gm mean ± SEM", "setting": "[11]", "value": "33.1 ± 1.6", "unit": "gm"},
      {"measurement": "inhibition of COX-2", "setting": "[12]", "value": "does not inhibit"},
      {"measurement": "analgesic effect on corneal neuropathic pain", "setting": "[13]", "value": "striking analgesic effect"},
      {"measurement": "detection in the systemic circulation", "setting": "[14]", "value": "no PS was detected"},
      {"measurement": "mechanical allodynia score (von Frey) after PS treatment", "setting": "[15]", "value": "1.8 ± 0.09", "unit": "g"}
    ]},
    {"smiles": "CCOP(=O)(NCCCCNC(=O)c1ccccc1SC/C=C(\\C)CC/C=C(\\C)CCC=C(C)C)OCC", "note": "[Q922]", "values": [
      {"measurement": "PWT, g Mean ± SEM", "setting": "[16]", "value": "1.48 ± 0.36", "unit": "g"}
    ]}
  ]
}
